Source: patent US20160045531A1, “COMBINATION THERAPY FOR TREATING CANCER” (EPIZYME, INC., priority 2014, published 2016)

Legend:
[1] = system: MOLM-13 (MLL-AF9) cell line; experiment: Combination proliferation study with Compound A2 (Example 1), MOLM-13; format: cell-based, human; conditions: 7 Day Cotreatment; Chou-Talalay CI
Description: (§1) The acute myelogenous leukemia cell lines MV4-11 (MLL-AF4) and MOLM-13 (MLL-AF9) were obtained from American Type Culture Collection (ATCC; Rockville, Md.) and Deutsche Sammlung von Mikroorganismen and Zellkulturen (DSMZ; Braunschweig, Germany) respectively. […] Further, strong synergism is achieved when the CI value falls below 0.3.

[2] = system: MV4-11 (MLL-AF4) cell line; experiment: Combination proliferation study with Compound A2 (Example 1), MV4-11; format: cell-based, human; conditions: 7 Day Cotreatment; Chou-Talalay CI
Description: as §1

[3] = system: MV4-11 (MLL-AF4 expressing acute biphenotypic leukemia cell line); experiment: Combination proliferation study with Compound A2 (Examples 2/3), MV4-11; format: cell-based, human; conditions: in combination with Compound A2; Chou-Talalay CI
Description: (§2) The HP-D300 digital dispenser (Tecan) was used to dispense compounds in a combinatorial matrix. […] Cell viability was measured via ATP content using CellTiter-Glo® (Promega).
(§3) Viability was determined using CellTiter-Glo® (Promega).

[4] = system: SKM-1 (non-MLL-rearranged AML); experiment: Combination proliferation study with Compound A2 (Examples 2/3), SKM-1; format: cell-based, human; conditions: for Combination studies with Compound A2, SKM-1 AML: Non-rearranged: in combination with Compound A2
Description: as §2, §3

MV4-11 (MLL-AF4) = experiment: Proliferation assay and calculation of synergism (Example 5), MV4-11; format: cell-based, human; conditions: for Combination with Compound A2, pre-treatment model with washout, MV4-11: Compound A2 washed out prior to the addition of the SOC agent; for Combination with Compound A2, pre-treatment model, MV4-11: no Compound A2 washout
Description: (§5) MV4-11 cells were maintained in IMDM supplemented with 10% fetal bovine serum. […] They were cultured in flasks or plates in a humidified 5% CO2 atmosphere.
(§6) Proliferation studies were performed using MOLM-13, MV4-11 and SKM-1 cell lines in vitro to evaluate the cancer cell killing effect of a combination of two agents together on cell growth. Initial proliferation studies were performed to determine the IC50 values of a given compound in each cell line. The cell counts were measured by ATP quantitation using the Promega Cell Titer Glo kit and luminescence values correspond to the amount of ATP in a given well.
(§7) These studies were performed to evaluate both the combinatorial effect of compounds on cell killing and the durability of the effect by washing out one of the agents.
(§8) Compounds evaluated for synergy in the co-treatment phase were tested in a range which was bracketed around the IC50's. The compounds were plated to a 96 well plate in a matrix format which includes increasing concentrations of each drug in the combination in a constant ratio, in addition to the effect of each compound alone in the study. […] Maximum and minimum inhibition (DMSO alone) controls were used in each plate to calculate fraction affected (Fa) of a test well. DMSO concentration was kept at 0.1% v/v. The drug combination analysis was performed utilizing the Chou-Talalay method. Synergy was determined using the software package Calcusyn by Biosoft. The combination index (CI) is the term used to describe the level of synergy or antagonism in a given test system. A combination index less than one indicates synergy, and a CI greater than one indicates antagonism.
(§9) The drug combination analysis was performed using the Chou-Talalay method. Graphs representing values of combination index (CI) versus Fractional effect (Fa) known as Fa-CI plots were generated and synergy was evaluated. Drug synergy was statistically defined by CI values less than 1, antagonism by CI>1 and additive effect by CI equal to 1.

MOLM-13 cells [5] = experiment: Pre-treatment model with reverse order of addition (Ara-C first), MOLM-13; format: cell-based, human; conditions: Ara-C 3 days
Description: MOLM-13 cells were pretreated with 9 concentrations of Ara-C or DMSO for 3 days.
Cell viability was measured via ATP content using CellTiter-Glo® (Promega).
In addition, the effect of sequence of addition of compounds was studied by measuring the ten day proliferation of cells pretreated with Ara-C in a 3+7 model. This experiment was performed by first pretreating MOLM-13 cells with increasing concentrations of Ara-C for 3 days.

MOLM-13 cells [6] = experiment: Flow cytometric analysis of cell cycle and Annexin V, MOLM-13; format: cell-based, human; conditions: for Apoptosis induction over 14 day course, single agent / Sub-G1 cell population, single agent: 156 nM Compound A2 or 63 nM Ara-C; for Sub-G1 cell population, single agent: 14 day treatment
Description: (§4) On Day 0 MOLM-13 cells are seeded at 3,000 cells/mL. On Day 7 and Day 10 MOLM-13 cells are counted and reseeded at 50,000 cells/mL. […] On Day 10 They were redosed again. On Day 14 the experiment was terminated.
To evaluate the fraction of cells in each cell cycle, flow cytometric analysis was performed. FACS analysis for detection of cell death by apoptosis, and cell cycle was performed.
Samples were analyzed using the Guava EasyCyte Plus System (Millipore). Cells for cell cycle analysis were pelleted by centrifugation at 200×g for 5 minutes at 4° C., washed twice with ice cold PBS then fixed with 70% ice cold ethanol. All samples were analyzed together at end of experiment. Following fixation cells were washed with PBS and stained with the Guava cell cycle reagent (Millipore 4500-0220) for 30 minutes. Samples were analyzed using the Guava EasyCyte Plus System (Millipore).

MOLM-13 cells [7] = experiment: CD11b and CD14 expression by flow cytometry, MOLM-13; format: cell-based, human
Description: as §4
The cells were prepared by washing twice in PBS, followed by fixation in 4% formaldehyde for ten minutes at 37° C. After fixation cells were washed and blocked with blocking buffer for 10 minutes at room temperature. Cells were then incubated in presence of anti-CD14, anti-CD11b or anti-IgG antibody for 1 hour at room temperature while rotating. Cells were washed, re-suspended in PBS and 5,000 events were analyzed using ExpressPro software on the GuavaCyte Plus System.

H3K79me2 = conditions: cited from earlier work
[8] = system: rat xenograft model of MLL-rearranged leukemia; conditions: cited from earlier work
[9] = system: acute leukemia lines bearing MLL translocations; conditions: sparing lines without MLL gene translocations; cited from earlier work
SKM-1 cells = experiment: Proliferation assay and calculation of synergism (Example 5), SKM-1; conditions: for Effect of Compound A2 on the antiproliferative activity of the second agent in SKM-1: combination with Compound A2
Description: The acute myelogenous leukemia cell line MV4-11 (MLL-AF4) (CRL-9591) was obtained from American Type Culture Collection (ATCC), Manassas, Va. and both MOLM-13 (MLL-AF9) (ACC 554) and SKM-1 (ACC 547) cells were obtained from Leibniz Institute DSMZ-German Collection of Microorganisms and Cell Cultures, Braunschweig, Germany. MV4-11 cells were maintained in IMDM supplemented with 10% fetal bovine serum. MOLM-13 and SKM-1 cells were maintained in Roswell Park Memorial Institute medium (RPMI) supplemented with 10% fetal bovine serum. They were cultured in flasks or plates in a humidified 5% CO2 atmosphere.
as §6, §7, §8, §9

[10] = system: Molm-13 (MLL-AF9 expressing acute myeloid leukemia); experiment: Combination proliferation study with Compound A2 (Examples 2/3), MOLM-13; format: cell-based, human; conditions: for Combination studies with Compound A2, MOLM-13 MLL-AF9: in combination with Compound A2, Chou-Talalay CI
Description: as §2, §3

MOLM-13 (MLL-AF9) = experiment: Proliferation assay and calculation of synergism (Example 5), MOLM-13; format: cell-based, human; conditions: for Combination with Compound A2, pre-treatment model with washout, MOLM-13: Compound A2 washed out prior to the addition of the SOC agent; for Combination with Compound A2, pre-treatment model, MOLM-13: no Compound A2 washout
Description: as §5, §6, §7, §8, §9

SMILES	Combination effect with Compound A2 on proliferation, MOLM-13 [1]	Combination effect with Compound A2 on proliferation, MV4-11 [2]	Combination studies with Compound A2, MV4-11 MLL-AF4 [3]	Combination studies with Compound A2, SKM-1 AML: Non-rearranged [4]	Apoptosis induction over 14 day course, single agent (MOLM-13 cells [6]; MOLM-13)	Sub-G1 cell population, single agent (MOLM-13 cells [6]; MOLM-13)	Differentiation markers CD11b and CD14, single agent (MOLM-13 cells [7])	Combination studies with Compound A2, MOLM-13 MLL-AF9 [10]	Combination with Compound A2, pre-treatment model with washout, MV4-11 (MV4-11 (MLL-AF4))	Combination with Compound A2, pre-treatment model, MV4-11 (MV4-11 (MLL-AF4))	Combination with Compound A2, pre-treatment model with washout, MOLM-13 (MOLM-13 (MLL-AF9))	Combination with Compound A2, pre-treatment model, MOLM-13 (MOLM-13 (MLL-AF9))	Effect of Compound A2 on the antiproliferative activity of the second agent in SKM-1 (SKM-1 cells)	other results
N[C@@H]1C[C@H]1c1ccccc1 (racemic) [Tranylcypromine]	synergy	synergy	–	–	–	–	–	–	–	–	–	–	–	–
Nc1ccn([C@@H]2O[C@H](CO)[C@@H](O)[C@@H]2O)c(=O)n1 [Ara-C, cytarabine]	–	Synergy (A combination index less than one indicates synergy)	Strong	No Combination	modest increase in apoptotic cell population	minimal effect	time and concentration dependent up-regulation	–	–	–	–	–	–	Combination with Compound A2, MV4-11 (MLL-AF4) (MV4-11 (MLL-AF4); 7 Day Cotreatment Model, Chou-Talalay CI): Strong Synergy; Combination with Compound A2, Ara-C pretreatment then cotreatment (MOLM-13 cells [5]; then Compound A2 and Ara-C 7 days): Synergy; Combination with Compound A2, Ara-C pretreatment then washout (MOLM-13 cells [5]; washed out, then Compound A2 7 days): Combination benefit is maintained; Apoptosis induction over 14 day course, combination with Compound A2 (MOLM-13 cells [6]; MOLM-13, 156 nM Compound A2 plus 63 nM Ara-C): enhance apoptosis; Sub-G1 cell population, combination with Compound A2 (MOLM-13 cells [6]; MOLM-13, 156 nM Compound A2 plus 63 nM Ara-C, 10 and 14 days): significant increase in the population of sub-G1 cells; Differentiation markers CD11b and CD14, combination with Compound A2 (MOLM-13 cells [7]): time and concentration dependent up-regulation
CC(C)N(C[C@H]1O[C@@H](n2cnc3c(N)ncnc32)[C@H](O)[C@@H]1O)[C@H]1C[C@@H](CCc2nc3cc(C(C)(C)C)ccc3[nH]2)C1 [Compound A2, (2R,3R,4S,5R)-2-(6-amino-9H-purin-9-yl)-5-((((1r,3S)-3-(2-(5-(tert-butyl)-1H-benzo[d]imidazol-2-yl)ethyl)cyclobutyl) (isopropyl)amino)methyl) tetrahydrofuran-3,4-diol]	–	–	–	–	much more robust induction of apoptosis	moderate, time-dependent increase in sub-G1 population	time and concentration dependent up-regulation	–	–	–	–	–	–	Single agent antiproliferative effect in SKM-1 ([4]; non-rearranged SKM-1 cell line): no effect alone; EC50 (MOLM-13 cells [6]; Homo sapiens, 168 h, MOLM-13, single agent, 7 days, Annexin-V staining, read-out: Midpoint value (EC50) of decrease in total content of viable cells): 364 ± 18 nM; Apoptotic cells (Annexin-V staining), single agent (MOLM-13 cells [6]; MOLM-13, after 7 days of treatment): concentration-dependent increase in apoptotic cells; Inhibition of intracellular DOT1L activity (H3K79 methylation) (H3K79me2; across a spectrum of AML cell lines): concentration-dependent inhibition of H3K79 methylation; Time for H3K79me2 to return to pretreatment levels after the latency period (H3K79me2; after the 3-day latency period): 4 days; Period without recovery of H3K79 methylation after wash out (H3K79me2; after wash out of Compound A2): 3 days; Depletion of cellular levels of H3K79me2 (H3K79me2; four days of treatment): > 80%; Tumor response in xenograft [8]: sustained tumor regressions; Cell killing in vitro [9]: promoted cell killing; Single agent antiproliferative activity in SKM-1 (SKM-1 cells; non-MLL-rearranged leukemia cell line SKM-1): no single agent activity
COc1cccc2c1C(=O)c1c(O)c3c(c(O)c1C2=O)C[C@@](O)(C(C)=O)C[C@@H]3O[C@H]1C[C@H](N)[C@H](O)[C@H](C)O1 [Daunorubicin, daunorubicin]	–	Synergy (A combination index less than one indicates synergy)	acts synergistically	No Combination	–	–	–	acts synergistically	synergistic anti-proliferative activity was maintained	synergistic antiproliferative activity	synergistic anti-proliferative activity was maintained	synergistic antiproliferative activity	did not affect the antiproliferative activity	Combination studies with Compound A2, SKM-1 AML: Non-rearranged ([4]; listed as daunorubicin): did not act synergistically
CC1(C)CCC(c2ccc(Cl)cc2)=C(CN2CCN(c3ccc(C(=O)NS(=O)(=O)c4ccc(N[C@H](CCN5CCOCC5)CSc5ccccc5)c(S(=O)(=O)C(F)(F)F)c4)cc3)CC2)C1 [Navitoclax]	synergy	synergy	–	–	–	–	–	–	–	–	–	–	–	–
Nc1ccn([C@@H]2O[C@H](CO)[C@@H](O)[C@@H]2O)c(=O)n1 [cytarabine]	–	–	acts synergistically	did not act synergistically	–	–	–	acts synergistically	synergistic anti-proliferative activity was maintained	synergistic antiproliferative activity	synergistic anti-proliferative activity was maintained	synergistic antiproliferative activity	did not affect the antiproliferative activity	Combination with Compound A2, Compound A2 removed at day 7 ([10]; Molm-13, Compound A2 removed at day 7 prior to cytarabine): durable combination benefit
